{"source": "paper PMC9605737", "about": "“Identification of 6ω-cyclohexyl-2-(phenylamino carbonylmethylthio)pyrimidin-4(3H)-ones targeting the ZIKV NS5 RNA dependent RNA polymerase” (Frontiers in Chemistry, 2022)", "key": {"[1]": {"test_system": "ZIKV", "test": "Plaque assay, anti-ZIKV activity in Vero cells", "type": "cell-based, Zika virus", "quoted_text": "Initially, the novel acetylarylamine-S-DACOs 4a-z were tested for their cytotoxicity and anti-ZIKV activity in Vero cells by plaque formation according to previously detailed procedure ([Xu et al., 2017]).\nVero cells were inoculated in a 12-well plate at 3 × 10^5 cells/ml and cultured overnight, the medium was discarded and cells were washed with PBS, then the ZIKV (MOI = 0.5) was added to infect at 37°C for 2 h. The cells were washed with PBS, and then a mixture of DMEM supplemented with 4% FBS and 2% low-melting agarose (Amresco, United States) was overlaid on the cells. Next, the cells were fixed with 4% paraformaldehyde for 15 min at 5d post-infection (hpi), washed twice with PBS and stained with 0.8% crystal violet for 10 min. Finally, an enzyme-linked fluorescence spot spectrometer (CTL, United States) was used for image acquisition."}, "[2]": {"test_system": "ZIKV RNA", "test": "qRT-PCR viral load in supernatant of ZIKV-infected Vero cells", "type": "cell-based", "settings": "Zika virus, read-out: EC50, inhibition of ZIKV RNA replication", "source_text": "In order to re-verify the inhibitory effect of 4w on ZIKV at the molecular level, we used ZIKV to infect cell lines of different origins (A549, Vero, Huh7 cells) and then treated with 4w in a concentration gradient. The change of viral load in the supernatant of cells after treatment was detected by qRT-PCR method.\nCells were infected with ZIKV SZ-WIV01 and then treated with 4w. The viral load in the supernatant was detected by Quantitative real-time polymerase chain reaction (qRT-PCR) at in different time periods after infection. Then the RNA from culture supernatant was extracted using the EasyPure ® Viral DNA/RNA Kit (TransGen Biotech, China) following the manufacturer’s instructions. Intracellular RNA extraction was according to trizol method. A one-step qRT-PCR kit RNA-direct™ Realtime PCR Master Mix (TOYOBO, Japan) and TaqMan probe were used to quantify the viral RNA produced. The primers (NS5 ZIKV 1086F: 5′-CCGCTGCCCAACACAAG-3′ and NS5 ZIKV 1086R: 3′-[…] C-5′) and probe (5′-FAM-[…]-TAMRA -3′) were used for amplification of the ZIKV NS5 region. A standard curve of the serial dilutions was used to quantify the viral RNA yield.\nThe 50% effective concentration (EC50) and 50% cytotoxic concentration (CC50) of the compound were calculated according to the Reed and Muench method, inhibition rate of ZIKV RNA yield- [(1-drug treatment/positive control) × 100]. […]"}, "[3]": {"target": "T1, ZIKV RdRp (Zika virus, UniProt A0A024B7W1)", "T1 construct": "we expressed and purified ZIKV RdRp domain; made in house; host or cells: Escherichia coli BL21 (DE3)", "T1 sequence (A0A024B7W1 2793-3423)": "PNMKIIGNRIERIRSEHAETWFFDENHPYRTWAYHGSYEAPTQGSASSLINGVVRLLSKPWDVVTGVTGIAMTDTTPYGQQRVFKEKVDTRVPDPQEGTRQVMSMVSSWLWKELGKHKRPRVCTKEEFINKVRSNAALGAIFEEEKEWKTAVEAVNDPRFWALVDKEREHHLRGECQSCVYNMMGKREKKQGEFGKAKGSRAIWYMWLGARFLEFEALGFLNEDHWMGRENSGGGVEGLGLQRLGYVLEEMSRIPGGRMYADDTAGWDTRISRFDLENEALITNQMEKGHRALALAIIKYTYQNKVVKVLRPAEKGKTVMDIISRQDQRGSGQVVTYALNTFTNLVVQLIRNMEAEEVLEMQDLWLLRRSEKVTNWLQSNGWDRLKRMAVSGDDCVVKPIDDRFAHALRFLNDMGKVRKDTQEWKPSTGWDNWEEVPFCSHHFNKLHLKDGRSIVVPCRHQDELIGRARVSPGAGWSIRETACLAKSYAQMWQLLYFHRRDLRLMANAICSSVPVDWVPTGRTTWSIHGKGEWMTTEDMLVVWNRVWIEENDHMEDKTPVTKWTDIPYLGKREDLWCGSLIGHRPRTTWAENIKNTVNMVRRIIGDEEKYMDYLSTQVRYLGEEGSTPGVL", "test": "In vitro ZIKV RdRp activity assay (Syto9 fluorescence)", "type": "biochemical", "settings": "purified ZIKV RdRp domain, poly-U/ATP, 30°C 60 min; read-out: EC50, inhibition of ZIKV RdRp activity", "source_text": "Through molecular docking experiments and cell thermal shift analysis, we supose that 4w may have a direct interaction with ZIKV RdRp. In order to verify whether the binding of 4w and NS5 protein is directly related to ZIKV RdRp, we expressed and purified ZIKV RdRp domain, and detected its activity according to the method described in the literature ([Qian et al., 2022]) (Figure 6A). […] Heparin is a protein chelating agent. […] Heparin was selected as the positive control drug in this experiment, and the syto9-only group was used as the negative control, the same volume of DMSO as a positive control.\nThe ZIKV RdRp was expressed and purified, and the protein expression and purification method was as described before ([Xu et al., 2017]; [Sáez-Álvarez et al., 2019]). 4w was diluted with protein dialysis buffer to 1,500 nM and stored for later use. In vitro RdRp polymerase activity assay was described previously ([Qian et al., 2022]), 1,500 ng of purified RdRp protein, gradient diluted 4w and positive control drug 5 μM, 2 mg/ml Poly-U, 20mM ATP, 1M Tris-HCl, 100 mg/ml BSA, 100mM MnCl2 was added to a 96-well PCR plate. After mixing, the reaction was performed at 30°C in the dark for 60 min. […] RdRp protein activity was detected on a real-time fluorescence quantitative PCR instrument."}, "[4]": {"test": "MTT cytotoxicity assay in Huh7 cells", "type": "cell-based", "settings": "human", "description": "(§1) MTT assay was used to detect the toxicity of the compound. Cells were seeded in 96-well plates and cultured overnight. Compounds with different concentrations were added and incubated for 96 h. Then, 20 μl of 5 mg/ml MTT (Sigma-Aldrich, United States) solution was added to each well and kept at 37°C for 4 h. Subsequently, 100 μl of 12% SDS-50% DMF (Sigma-Aldrich, United States) solution was added and incubated overnight at 37°C. After the crystalline formamidine was completely dissolved, the optical density (OD) value was measured using a microplate reader (BioTek, United States) with a wavelength of 570 nm and a reference wavelength of 630 nm.\n(§2) The 50% effective concentration (EC50) and 50% cytotoxic concentration (CC50) of the compound were calculated according to the Reed and Muench method, inhibition rate of ZIKV RNA yield- [(1-drug treatment/positive control) × 100]. The data and graphs were processed using GraphPad Prism8 software, expressed as mean ± standard deviation (Mean ± SD), comparison between groups using ANOVA, p < 0.05 was considered statistically significant."}, "[5]": {"test": "MTT cytotoxicity assay in Vero cells", "type": "cell-based, African green monkey", "settings": "African green monkey, triplicate, >200 = highest soluble concentration not reaching 50% cytotoxicity", "description": "as §1, §2"}, "[6]": {"settings": "Figure 3; ref Shen (2015); cited from earlier work"}, "[7]": {"target": "T2, ZIKV NS5 protein (Zika virus, UniProt A0A024B7W1)", "T2 construct": "endogenous in cells; host or cells: Vero cells infected with ZIKV", "T2 sequence (A0A024B7W1 2521-3423)": "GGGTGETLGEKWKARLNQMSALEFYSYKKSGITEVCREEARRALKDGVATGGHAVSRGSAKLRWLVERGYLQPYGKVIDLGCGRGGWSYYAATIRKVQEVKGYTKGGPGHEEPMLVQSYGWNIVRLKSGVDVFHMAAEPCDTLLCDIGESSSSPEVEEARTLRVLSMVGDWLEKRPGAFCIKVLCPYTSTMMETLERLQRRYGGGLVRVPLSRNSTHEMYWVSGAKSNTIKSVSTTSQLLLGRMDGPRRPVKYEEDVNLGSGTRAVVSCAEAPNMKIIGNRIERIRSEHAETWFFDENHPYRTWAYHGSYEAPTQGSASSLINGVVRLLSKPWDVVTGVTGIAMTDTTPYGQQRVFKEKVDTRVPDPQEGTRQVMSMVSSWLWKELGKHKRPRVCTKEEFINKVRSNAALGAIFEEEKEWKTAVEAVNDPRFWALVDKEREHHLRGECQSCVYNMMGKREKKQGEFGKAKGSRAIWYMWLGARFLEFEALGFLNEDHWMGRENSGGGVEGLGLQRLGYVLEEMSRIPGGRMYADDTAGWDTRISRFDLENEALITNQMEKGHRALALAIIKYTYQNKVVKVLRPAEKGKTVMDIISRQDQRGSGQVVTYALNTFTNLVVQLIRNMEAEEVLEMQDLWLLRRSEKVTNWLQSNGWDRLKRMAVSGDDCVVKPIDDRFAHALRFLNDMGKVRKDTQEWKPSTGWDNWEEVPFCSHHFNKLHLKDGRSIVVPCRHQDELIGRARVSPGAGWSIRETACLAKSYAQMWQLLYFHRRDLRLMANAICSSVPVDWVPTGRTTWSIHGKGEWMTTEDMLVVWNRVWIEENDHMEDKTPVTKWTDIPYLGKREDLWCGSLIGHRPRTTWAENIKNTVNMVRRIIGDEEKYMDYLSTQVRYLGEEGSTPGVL", "test": "Cell thermal shift assay (CETSA) with WB detection", "type": "binding", "settings": "50 μM, lysate of ZIKV-infected Vero cells, 60 min; DMSO control 42.3°C", "description": "Cell thermal shift assay (CETSA) experiments are often used to detect the binding of intracellular drugs to target proteins. The assay was based on the principle of ligand-induced changes in protein thermal stability. The stability of the protein is evaluated by comparing the melting curves between the control group and the experimental group, thus assessing the interaction of the compound with the target protein.\nTherefore, in order to further verify the interaction between 4w and ZIKV NS5, ZIKV-infected cell were treated with 4w (at 50 μM concentration), then total protein was incubation for 60 min at room temperature, and it was divided into nine equal parts. The same volume of DMSO was added as a control, and the treated protein was heated in a temperature gradient and then detected ZIKV NS5 protein by WB assay (Figure 5A).\nVero cells were inoculated in a 10 cm cell culture dish and cultured overnight, and after infection with ZIKV (MOI ≈2), maintenance medium was added to continue culturing for 3 days. Detergent-free protein lysis buffer (25 mM HEPES, 20 mM MgCl2, 2 mM DTT) was added, and cells were lysed by sonication. […] The supernatants were collected to prepare the samples, and the binding of 4w and ZIKV NS5 protein was analyzed by Western blotting ([Chen et al., 2020]; [Chen et al., 2021])."}}, "data": [{"smiles": "CCc1c(C2CCCCC2)nc(SCC(=O)Nc2cc(F)cc(F)c2)[nH]c1=O", "note": "[Compound 4w, 2-{[4-cyclohexyl-5-ethyl-6-oxo-1,6-dihydropyrimidin-2-yl]thio}-N-(3,5-difluorophenyl)acetamide]", "values": [{"measurement": "SI (selectivity index, CC50/EC50 ratio)", "setting": "[1]", "value": ">26"}, {"measurement": "EC50", "setting": "[1]; Zika virus, plaque assay, independently in triplicate, read-out: EC50 (anti-ZIKV activity, plaque formation)", "value": "7.65 ± 0.31", "unit": "µM"}, {"measurement": "EC50", "setting": "[2]", "value": "6.87 ± 1.21", "unit": "µM"}, {"measurement": "EC50", "setting": "[3]", "value": "11.4 ± 0.51", "unit": "µM"}, {"measurement": "CC50 at 96 h", "setting": "[4]", "value": "> 200", "unit": "µM"}, {"measurement": "CC50 at 96 h", "setting": "[5]", "value": "> 200", "unit": "µM"}, {"measurement": "CC50", "setting": "[6]", "value": "> 10", "unit": "µM"}, {"measurement": "apparent aggregation temperature (Tagg) of ZIKV NS5 protein", "setting": "[7]", "value": 49.3, "unit": "°C"}]}]}
